In brackets after ≈: the same amount, converted by molar mass. Activity calls are given as the source filed them. No cut-off for these calls is given here.
How the values were obtained:
Cryptococcus neoformans = assay: Antifungal activity against Cryptococcus neoformans ZKCC 2209 assessed as fungal growth inhibition incubated for 72 hrs by CLSI based susceptibility test; assay type: functional
Aspergillus fumigatus = assay: Antifungal activity against Aspergillus fumigatus KM8001 assessed as fungal growth inhibition incubated for 72 hrs by CLSI based susceptibility test; assay type: functional
Candida tropicalis = assay: Antifungal activity against Candida tropicalis ATCC 1369 assessed as fungal growth inhibition incubated for 72 hrs by CLSI based susceptibility test; assay type: functional
Candida albicans [1] = assay: Antifungal activity against Candida albicans SC5314 assessed as fungal growth inhibition incubated for 72 hrs by CLSI based susceptibility test; assay type: functional
Nakaseomyces glabratus = assay: Antifungal activity against Candida glabrata assessed as fungal growth inhibition incubated for 72 hrs by CLSI based susceptibility test; assay type: functional
[2] = molecular target: T1, Lanosterol 14-alpha demethylase (Candida albicans (strain SC5314 / ATCC MYA-2876) (Yeast), UniProt P10613); assay: Inhibition of CYP51 in Candida albicans SC5314 assessed as lanosterol level at 4 ug/ml incubated for 16 hrs by GC-MS analysis relative to control; design: scale not given: the % may be the effect or the level left; details: at 4 µg/mL
T1 sequence (P10613 whole entry): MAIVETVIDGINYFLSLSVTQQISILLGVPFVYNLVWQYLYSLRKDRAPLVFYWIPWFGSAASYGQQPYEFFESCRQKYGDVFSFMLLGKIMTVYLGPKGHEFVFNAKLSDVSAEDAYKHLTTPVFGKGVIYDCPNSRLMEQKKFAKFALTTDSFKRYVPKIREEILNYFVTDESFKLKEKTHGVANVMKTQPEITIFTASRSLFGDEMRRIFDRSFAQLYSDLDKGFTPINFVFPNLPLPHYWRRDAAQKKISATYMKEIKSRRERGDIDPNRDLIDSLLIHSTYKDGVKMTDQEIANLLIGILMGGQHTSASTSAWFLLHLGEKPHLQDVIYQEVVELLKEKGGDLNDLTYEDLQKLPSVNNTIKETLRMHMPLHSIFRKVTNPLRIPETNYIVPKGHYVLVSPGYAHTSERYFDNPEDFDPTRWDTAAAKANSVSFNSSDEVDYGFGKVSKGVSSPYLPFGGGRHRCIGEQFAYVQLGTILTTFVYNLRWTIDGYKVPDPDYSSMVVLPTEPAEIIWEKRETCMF

Candida albicans [3] = assay: Induction of apoptosis in Candida albicans SC5314 assessed as apoptotic cells incubated for 48 hrs by annexin V-FITC/PI staining based flow cytometry (reference value: 2.12 %); assay type: functional
[4] = molecular target: T1, Lanosterol 14-alpha demethylase; assay: Inhibition of CYP51 in Candida albicans SC5314 assessed as ergosterol level at 4 ug/ml incubated for 16 hrs by GC-MS analysis (reference value: 92.07 %); design: scale not given: the % may be the effect or the level left; details: at 4 µg/mL
[5] = molecular target: T2, Programmed cell death 1 ligand 1 (Homo sapiens, UniProt Q9NZQ7); assay: Inhibition of human PD-L1 incubated for 15 mins by ELISA method
T2 sequence (Q9NZQ7 whole entry): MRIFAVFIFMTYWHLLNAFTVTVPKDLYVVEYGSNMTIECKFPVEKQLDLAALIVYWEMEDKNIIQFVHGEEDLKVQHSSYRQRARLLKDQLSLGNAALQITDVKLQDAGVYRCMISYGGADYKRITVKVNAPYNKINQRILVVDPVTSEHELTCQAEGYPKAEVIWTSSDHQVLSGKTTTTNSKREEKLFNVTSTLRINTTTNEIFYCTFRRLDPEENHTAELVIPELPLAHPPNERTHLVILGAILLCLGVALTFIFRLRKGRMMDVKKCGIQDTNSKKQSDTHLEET

Candida albicans [6] = assay: Induction of apoptosis in Candida albicans SC5314 assessed as increase in ROS level at 1 uM/ml incubated for 48 hrs by fluorescence microscopy; assay type: functional, organism-based
[7] = molecular target: T1, Lanosterol 14-alpha demethylase; assay: Inhibition of CYP51 in Candida albicans SC5314 assessed as unknown sterol level at 4 ug/ml incubated for 16 hrs by GC-MS analysis (reference value: 5.35 %); design: scale not given: the % may be the effect or the level left; details: at 4 µg/mL
[8] = molecular target: T1, Lanosterol 14-alpha demethylase; assay: Inhibition of CYP51 in Candida albicans SC5314 using lanosterol as substrate incubated for 60 mins by HPLC analysis
Candida albicans [9] = assay: Induction of mitochondrial membrane depolarization in Candida albicans SC5314 by JC-1 staining based flow cytometry (reference value: 12.51 %); assay type: functional
[10] = molecular target: T2, Programmed cell death 1 ligand 1; assay: Binding affinity to PD-L1 (unknown origin) immobilized on carboxy chip assessed as dissociation constant by SPR analysis
Candida albicans [11] = assay: Antifungal activity against FLC-resistant Candida albicans CaR assessed as fungal growth inhibition incubated for 72 hrs by CLSI based susceptibility test; assay type: functional
Candida albicans [12] = assay: Antifungal activity against FLC-resistant Candida albicans 904 assessed as fungal growth inhibition incubated for 72 hrs by CLSI based susceptibility test; assay type: functional
Candida albicans [13] = assay: Antifungal activity against FLC-resistant Candida albicans 17# assessed as fungal growth inhibition incubated for 72 hrs by CLSI based susceptibility test; assay type: functional
Candida albicans [14] = assay: Induction of apoptosis in Candida albicans SC5314 assessed as necrotic cells incubated for 48 hrs by annexin V-FITC/PI staining based flow cytometry (reference value: 2.12 %); assay type: functional
Candida albicans [15] = assay: Antifungal activity against FLC-resistant Candida albicans 901 assessed as fungal growth inhibition incubated for 72 hrs by CLSI based susceptibility test; assay type: functional
Candida albicans [16] = assay: Antifungal activity against FLC-resistant Candida albicans 632 assessed as fungal growth inhibition incubated for 72 hrs by CLSI based susceptibility test; assay type: functional
Candida albicans [17] = assay: Antifungal activity against Candida albicans 901 infected in BALB/c mouse assessed as inhibition of fungal proliferation at 0.5 ug/g administered 6 times measured after 4 days in presence of Ketoconazole by GMS staining based analysis; assay type: functional, organism-based; details: dose 0.5 µg/g, time 4.0 day
Candida albicans [18] = assay: Induction of immunity in BALB/c mouse infected with Candida albicans 901 assessed as decrease in PD-L1 level at 0.5 ug/g administered 6 times measured after 4 days in presence of Ketoconazole by IHC analysis; assay type: functional, organism-based; details: dose 0.5 µg/g, time 4.0 day
Candida albicans [19] = assay: Induction of immunity in BALB/c mouse infected with Candida albicans 901 assessed as decrease in PD-L1 level at 0.5 ug/g administered 6 times measured after 4 days in presence of Ketoconazole by Western blot analysis; assay type: functional, organism-based; details: dose 0.5 µg/g, time 4.0 day
[20] = Toxicity in BALB/c mouse infected with Candida albicans 901 assessed as pathological change in spleen at 0.5 ug/g administered 6 times measured after 4 days in presence of Ketoconazole by H and E staining based analysis; assay type: tissue-based; details: in vivo, 96 h, dose 0.5 µg/g, time 4 day
[21] = Toxicity in BALB/c mouse infected with Candida albicans 901 assessed as pathological change in heart at 0.5 ug/g administered 6 times measured after 4 days in presence of Ketoconazole by H and E staining based analysis; assay type: tissue-based; details: in vivo, 96 h, dose 0.5 µg/g, time 4 day
[22] = Toxicity in BALB/c mouse infected with Candida albicans 901 assessed as pathological change in lung at 0.5 ug/g administered 6 times measured after 4 days in presence of Ketoconazole by H and E staining based analysis; assay type: tissue-based; details: in vivo, 96 h, dose 0.5 µg/g, time 4 day
Candida albicans [23] = assay: Antifungal activity against Candida albicans 901 infected in BALB/c mouse assessed as repair of tissue damage at 0.5 ug/g administered 6 times measured after 4 days in presence of Ketoconazole by GMS staining based analysis; assay type: functional, organism-based; details: dose 0.5 µg/g, time 4.0 day
Candida albicans [24] = assay: Antifungal activity against Candida albicans 901 infected in BALB/c mouse assessed as decrease in collagen fiber content at 0.5 ug/g administered 6 times measured after 4 days in presence of Ketoconazole by Masson staining based analysis; assay type: functional, organism-based; details: dose 0.5 µg/g, time 4.0 day
[25] = Toxicity in BALB/c mouse infected with Candida albicans 901 assessed as pathological change in kidney at 0.5 ug/g administered 6 times measured after 4 days in presence of Ketoconazole by H and E staining based analysis; assay type: tissue-based; details: in vivo, 96 h, dose 0.5 µg/g, time 4 day
Candida albicans [26] = assay: Antifungal activity against Candida albicans 901 infected in BALB/c mouse assessed as decrease in collagen fiber content at 0.5 ug/g administered 6 times measured after 4 days in presence of Ketoconazole by GMS staining based analysis; assay type: functional, organism-based; details: dose 0.5 µg/g, time 4.0 day
Candida albicans [27] = assay: Antifungal activity against Candida albicans 901 infected in BALB/c mouse assessed as repair of tissue damage at 0.5 ug/g administered 6 times measured after 4 days in presence of Ketoconazole by Masson staining based analysis; assay type: functional, organism-based; details: dose 0.5 µg/g, time 4.0 day
[28] = Toxicity in BALB/c mouse infected with Candida albicans 901 assessed as pathological change in liver at 0.5 ug/g administered 6 times measured after 4 days in presence of Ketoconazole by H and E staining based analysis; assay type: tissue-based; details: in vivo, 96 h, dose 0.5 µg/g, time 4 day
Candida albicans [29] = assay: Antifungal activity against Candida albicans 901 infected in BALB/c mouse assessed as inhibition of fungal proliferation at 0.5 ug/g administered 6 times measured after 4 days in presence of Ketoconazole by Masson staining based analysis; assay type: functional, organism-based; details: dose 0.5 µg/g, time 4.0 day

MIC50 (Cryptococcus neoformans) [µg/mL]	MIC50 (Aspergillus fumigatus) [µg/mL]	MIC50 (Candida tropicalis) [µg/mL]	MIC50 (Candida albicans [1]) [µg/mL]	MIC50 (Nakaseomyces glabratus) [µg/mL]	SMILES	IC50 [5] [nM]	also measured
1 (≈ 2.05 µM)	> 8	1 (≈ 2.05 µM)	0.5 (≈ 1.02 µM)	0.5 (≈ 1.02 µM)	Cc1c(CN2CCCC(C(=O)N[C@H](Cn3ccnc3)C(=O)OC(C)C)C2)cccc1-c1ccccc1 (some centres undefined)	–	–
1 (≈ 2.2 µM)	> 8	2 (≈ 4.39 µM)	0.5 (≈ 1.1 µM)	1 (≈ 2.2 µM)	COC(=O)[C@@H](Cn1ccnc1)NCc1cccc(OCc2cccc(-c3ccccc3)c2C)c1	–	–
2 (≈ 4.33 µM)	4 (≈ 8.67 µM)	1 (≈ 2.17 µM)	0.5 (≈ 1.08 µM)	2 (≈ 4.33 µM)	COC(=O)[C@@H](Cn1cncn1)NC(=O)C1CCCN(Cc2cccc(-c3ccccc3)c2C)C1 (some centres undefined)	–	–
–	–	–	–	–	O=C(O)[C@@H](CO)NCc1cc(Cl)c(OCc2cccc(-c3ccccc3)c2Br)cc1OCc1cccnc1	22	inhibition (Candida albicans [17]): Active; Activity (Candida albicans [18]): Active; Activity (Candida albicans [19]): Active; Activity [20]: Non-Toxic; Activity [21]: Non-Toxic; Activity [22]: Non-Toxic; Activity (Candida albicans [23]): Active; Activity (Candida albicans [24]): Active; Activity [25]: Non-Toxic; Activity (Candida albicans [26]): Active; Activity (Candida albicans [27]): Active; Activity [28]: Non-Toxic; inhibition (Candida albicans [29]): Active
2 (≈ 4.25 µM)	4 (≈ 8.5 µM)	1 (≈ 2.13 µM)	1 (≈ 2.13 µM)	0.25 (≈ 0.531 µM)	CCOC(=O)[C@@H](Cn1cncn1)NCc1cccc(OCc2cccc(-c3ccccc3)c2C)c1	–	–
2 (≈ 4.14 µM)	4 (≈ 8.27 µM)	0.5 (≈ 1.03 µM)	0.25 (≈ 0.517 µM)	0.5 (≈ 1.03 µM)	Cc1c(COc2cccc(CN[C@H](Cn3ccnc3)C(=O)OC(C)C)c2)cccc1-c1ccccc1	–	–
1 (≈ 2.11 µM)	> 8	0.25 (≈ 0.527 µM)	0.25 (≈ 0.527 µM)	0.5 (≈ 1.05 µM)	CCOC(=O)[C@@H](Cn1ccnc1)NC(=O)C1CCCN(Cc2cccc(-c3ccccc3)c2C)C1 (some centres undefined)	–	–

SMILES	MIC50 (Cryptococcus neoformans) [µg/mL]	MIC50 (Aspergillus fumigatus) [µg/mL]	MIC50 (Candida tropicalis) [µg/mL]	MIC50 (Candida albicans [1]) [µg/mL]	MIC50 (Nakaseomyces glabratus) [µg/mL]	IC50 [5] [nM]	also measured
Cc1c(CN2CCCC(C(=O)N[C@H](Cn3cncn3)C(=O)OC(C)C)C2)cccc1-c1ccccc1 (some centres undefined)	1 (≈ 2.04 µM)	2 (≈ 4.08 µM)	0.25 (≈ 0.511 µM)	0.125 (≈ 0.255 µM)	0.5 (≈ 1.02 µM)	35	Activity [2]: 11.25%; Activity (Candida albicans [3]): 25.91%; Activity [4]: 14.71%; Activity (Candida albicans [6]): Active; Activity [7]: 4.19%; IC50 [8]: 320 nM; Activity (Candida albicans [9]): 34.74%; Kd [10]: 15 nM; MIC50 (Candida albicans [11]): 4 µg/mL (≈ 8.17 µM); MIC50 (Candida albicans [12]): 4 µg/mL (≈ 8.17 µM); MIC50 (Candida albicans [13]): 4 µg/mL (≈ 8.17 µM); Activity (Candida albicans [14]): 25.91%; MIC50 (Candida albicans [15]): ≥ 8 µg/mL; MIC50 (Candida albicans [16]): 2 µg/mL (≈ 4.08 µM)
CC(C)OC(=O)[C@@H](Cn1ccnc1)NC(=O)C1CCCN(C(=O)c2cccc(-c3ccccc3)c2)C1 (some centres undefined)	0.5 (≈ 1.02 µM)	2 (≈ 4.09 µM)	0.5 (≈ 1.02 µM)	0.25 (≈ 0.512 µM)	0.25 (≈ 0.512 µM)	63	Activity [2]: 12.71%; Activity (Candida albicans [3]): 25.91%; Activity [4]: 16.08%; Activity (Candida albicans [6]): Active; Activity [7]: 4.96%; IC50 [8]: 410 nM; Activity (Candida albicans [9]): 34.74%; Kd [10]: 15 nM; MIC50 (Candida albicans [11]): 2 µg/mL (≈ 4.09 µM); MIC50 (Candida albicans [12]): ≥ 8 µg/mL; MIC50 (Candida albicans [13]): ≥ 8 µg/mL; Activity (Candida albicans [14]): 25.91%; MIC50 (Candida albicans [15]): 4 µg/mL (≈ 8.19 µM); MIC50 (Candida albicans [16]): 4 µg/mL (≈ 8.19 µM)
